These results are taken from publication PMC5608427, “Convergent evolution involving dimeric and trimeric dUTPases in pathogenicity island mobilization” (PLoS Pathogens, 2017).

The term IC50 denotes the concentration at which inhibition is half-maximal. High values mean lower potency, low ones higher potency. By Km is commonly meant the substrate concentration at which the rate is half of its maximum.

The target of experiment [1] is T1, ϕDI Dut-Stl complex (Staphylococcus aureus, UniProt A0A2D0TC87).
T1 construct: His-tagged Dut and purified Stl, E. coli; 1:1 molar ratio of Dut and Stl; with SaPIbov1 master repressor Stl (Staphylococcus aureus pathogenicity island SaPIbov1)
Put plainly: Native-PAGE, disruption of Dut-Stl complex. Conditions: equimolar Dut and Stl; dUMP up to 1 mM. Format: binding.

Experiment [2] deals with T2, ϕDI Dut (dimeric dUTPase) (Staphylococcus aureus, UniProt A0A2D0TC87).
T2 construct: His-tagged, pET-28a, E. coli BL21(DE3); homodimer; eight helices, residues 7-163 in helices
The experiment can be described thus: isothermal titration calorimetry. Particulars: 50 mM HEPES pH 7.5, 250 mM NaCl, 5 mM MgCl2, 25°C; single-site model; read-out: dissociation constant. Format: binding. An excerpt: isothermal titration calorimetry on ϕDI Dut (dimeric dUTPase) | used to calculate the dissociation constant of ϕDI and ϕDI^A73L Duts against dUPNPP

For experiment [3], the target named is T1, ϕDI Dut-Stl complex. The experiment can be described thus: Native-PAGE, disruption of Dut-Stl complex. Particulars: equimolar Dut and Stl (17 μM); 4°C electrophoresis; competes with Stl binding to Dut. An excerpt: Native-PAGE, disruption of Dut-Stl complex on ϕDI Dut-Stl complex | competing away the dimeric ϕDI Dut from binding to the SaPI Stl repressor, with an IC50

Experiment [4] addresses T2, ϕDI Dut (dimeric dUTPase). Put plainly: X-ray crystallography, […] Å. Format: binding. Particulars: Mg2+; active site, two Mg2+ per nucleotide.
For experiment [5], the system named is T3, ϕDII Dut (dimeric dUTPase).
T3 construct: His-tagged, pET-28a, E. coli BL21(DE3)
The experiment can be described thus: Malachite Green phosphate assay. Format: biochemical, Staphylococcus phage phiDII. Particulars: 3-400 μM dUTP; 25°C; free Dut, no Stl; decimal comma (11.1). The text has this: Malachite Green phosphate assay on ϕDII Dut (dimeric dUTPase)

Experiment [6] concerns T4, ϕNM1 Dut (dimeric dUTPase).
T4 construct: His-tagged, pET-28a, E. coli BL21(DE3)
The experiment can be described thus: Malachite Green phosphate assay. Conditions: 3-400 μM dUTP; 25°C; free Dut, no Stl; decimal comma (17.5). Format: biochemical, Staphylococcus phage phiNM1. The text has this: Malachite Green phosphate assay on ϕNM1 Dut (dimeric dUTPase)

The subject of experiment [7] is T5, ϕ55 Dut (dimeric dUTPase).
T5 construct: His-tagged, pET-28a, E. coli BL21(DE3)
The experiment can be described thus: Malachite Green phosphate assay. Particulars: 3-400 μM dUTP; 25°C; free Dut, no Stl; decimal comma (13.6). Format: biochemical, Staphylococcus phage 55. The text has this: Malachite Green phosphate assay on ϕ55 Dut (dimeric dUTPase)

Experiment [8] relates to T6, ϕO11 Dut (dimeric dUTPase).
T6 construct: His-tagged, pET-28a, E. coli BL21(DE3); not the trimeric Dut of phage ϕ11
Put plainly: Malachite Green phosphate assay. Format: biochemical, Staphylococcus phage phiO11. Particulars: 3-400 μM dUTP; 25°C; free Dut, no Stl; decimal comma (17.4). An excerpt:
Malachite Green phosphate assay on ϕO11 Dut (dimeric dUTPase)

In experiment [9] the target is SaPIbov1-encoded Stl repressor (Staphylococcus aureus (pathogenicity island SaPIbov1)). The experiment can be described thus: native gel or EMSA. A general note: In EMSA bound probe runs differently from free probe, usually more slowly.

Turning to `O=c1ccn([C@H]2C[C@H](O)[C@@H](COP(=O)(O)O)O2)c(=O)[nH]1` [dUMP], the “Native-PAGE, disruption of Dut-Stl complex” value on ϕDI Dut-Stl complex [1] is on record as “only a weak reduction in ϕDI Dut-Stl binding was observed”.

Regarding `O=c1ccn([C@H]2C[C@H](O)[C@@H](COP(=O)(O)NP(=O)(O)OP(=O)(O)O)O2)c(=O)[nH]1` [dUPNPP, 2-Deoxyuridine-5-[(α,β)-imido]triphosphate], the Kd in experiment [2] amounted to 4.9 µM. This compound also came in with an IC50 at ϕDI Dut-Stl complex [3] of 13.9 µM. Further, in [4], the “X-ray crystallography, 2.1 Å” value was “structure of the ϕDI Dut in complex with dUPNPP”.

For `O=c1ccn([C@H]2C[C@H](O)[C@@H](COP(=O)(O)OP(=O)(O)OP(=O)(O)O)O2)c(=O)[nH]1` [dUTP], the Km worked out at 11.1 µM in experiment [5], 17.5 µM in experiment [6], 13.6 µM in experiment [7] and 17.4 µM in experiment [8].

Consider “dimeric dUTPase (Dut) from S. aureus phage ϕDI (enzyme)”, for which the stoichiometry N (Dut:Stl molar ratio) in experiment [9] turned out to be 1.

For the compound “dimeric dUTPase (Dut) from S. aureus phage ϕO11 (enzyme)”, the stoichiometry N (Dut:Stl molar ratio) in experiment [9] was found to be 1.
